Reference: PubChem BioAssay (NCI)
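Results reflect a 48-hour exposure of cells in 96-well plates to compound at five concentrations. At the GI50, growth is halved. TGI denotes the concentration required for complete inhibition of growth.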

Key:
Experiment in all cases: growth of human tumour cells (NCI), 48 h
[1] = system: 786-0 renal
[2] = system: A498 renal
[3] = system: A549 NSCLC
[4] = system: ACHN renal
[5] = system: BT-549 breast
[6] = system: CAKI-1 renal
[7] = system: CCRF-CEM leukemia
[8] = system: COLO 205 colon
[9] = system: DU-145 prostate
[10] = system: EKVX NSCLC
[11] = system: HCC-2998 colon
[12] = system: HCT-116 colon
[13] = system: HCT-15 colon
[14] = system: HL-60(TB) leukemia
[15] = system: HOP-62 NSCLC
[16] = system: HOP-92 NSCLC
[17] = system: HS 578T breast
[18] = system: HT29 colon
[19] = system: IGROV1 ovarian
[20] = system: K-562 leukemia
[21] = system: KM12 colon
[22] = system: LOX IMVI melanoma
[23] = system: M14 melanoma
[24] = system: MALME-3M melanoma
[25] = system: MCF7 breast
[26] = system: MDA-MB-231 breast
[27] = system: MDA-MB-435
[28] = system: MDA-MB-468 breast
[29] = system: MOLT-4 leukemia
[30] = system: NCI-H226 lung
[31] = system: NCI-H23 lung
[32] = system: NCI-H460 lung
[33] = system: NCI-H522 lung
[34] = system: NCI/ADR-RES ovarian
[35] = system: OVCAR-3 ovarian
[36] = system: OVCAR-4 ovarian
[37] = system: OVCAR-5 ovarian
[38] = system: OVCAR-8 ovarian
[39] = system: PC-3 prostate
[40] = system: RPMI-8226 leukemia
[41] = system: RXF 393 renal
[42] = system: SF-268 CNS
[43] = system: SF-295 CNS
[44] = system: SF-539 CNS
[45] = system: SK-MEL-2 melanoma
[46] = system: SK-MEL-28 melanoma
[47] = system: SK-MEL-5 melanoma
[48] = system: SK-OV-3 ovarian
[49] = system: SN12C renal
[50] = system: SNB-19 CNS
[51] = system: SNB-75 CNS
[52] = system: SW-620 colon
[53] = system: T-47D breast
[54] = system: TK-10 renal
[55] = system: U251 CNS
[56] = system: UACC-257 melanoma
[57] = system: UACC-62 melanoma
[58] = system: UO-31 renal

O=C(c1ccc(OCCN2CCOCC2)cc1)C1[C@H](c2ccc(Cl)cc2)[C@@H](c2ccccc2)NC12C(=O)Nc1ccc(Cl)cc12 (stereo partly specified)
GI50 [1]: 8.8 µM | TGI [1]: 19.6 µM | GI50 [2]: 8.24 µM | TGI [2]: 23.2 µM | GI50 [3]: 12.6 µM | TGI [3]: > 47.3 µM | GI50 [4]: 11.9 µM | TGI [4]: 40.9 µM | GI50 [5]: 8.58 µM | TGI [5]: 23.5 µM | GI50 [6]: 8.1 µM | TGI [6]: 39.5 µM | GI50 [7]: 10.6 µM | TGI [7]: 27.1 µM | GI50 [8]: 8.43 µM | TGI [8]: 16.8 µM | GI50 [9]: 10.9 µM | TGI [9]: 28.2 µM | GI50 [10]: 8.46 µM | TGI [10]: 27.2 µM | GI50 [11]: 7.6 µM | TGI [11]: 14.9 µM | GI50 [12]: 8.02 µM | TGI [12]: 15.9 µM | GI50 [13]: 7.53 µM | TGI [13]: 15.9 µM | GI50 [14]: 12 µM | TGI [14]: 34.9 µM | GI50 [15]: 9.46 µM | TGI [15]: 19.5 µM | GI50 [16]: 6.85 µM | TGI [16]: 18.7 µM | GI50 [17]: 7.88 µM | TGI [17]: 21.6 µM | GI50 [18]: 7.49 µM | TGI [18]: 16.7 µM | GI50 [19]: 9.58 µM | TGI [19]: 23.9 µM | GI50 [20]: 12.8 µM | TGI [20]: > 47.3 µM | GI50 [21]: 8.31 µM | TGI [21]: 18.2 µM | GI50 [22]: 7.35 µM | TGI [22]: 13.7 µM | GI50 [23]: 8.04 µM | TGI [23]: 15.8 µM | GI50 [24]: 7.11 µM | TGI [24]: 14.3 µM | GI50 [25]: 8.4 µM | TGI [25]: 27.8 µM | GI50 [26]: 7.62 µM | TGI [26]: 14.4 µM | GI50 [27]: 7.85 µM | TGI [27]: 15.8 µM | GI50 [28]: 7.43 µM | TGI [28]: 20.4 µM | GI50 [29]: 7.53 µM | TGI [29]: 27.9 µM | GI50 [30]: 8.06 µM | TGI [30]: 19.5 µM | GI50 [31]: 8.72 µM | TGI [31]: 18.2 µM | GI50 [32]: 8.9 µM | TGI [32]: 19.1 µM | GI50 [33]: 9.75 µM | TGI [33]: 21.3 µM | GI50 [34]: 11.1 µM | TGI [34]: 31.2 µM | GI50 [35]: 8.24 µM | TGI [35]: 20.1 µM | GI50 [36]: 11 µM | TGI [36]: 39.2 µM | GI50 [37]: 8.98 µM | TGI [37]: 25.4 µM | GI50 [38]: 13.6 µM | TGI [38]: > 47.3 µM | GI50 [39]: 7.93 µM | TGI [39]: 20.3 µM | GI50 [40]: 10.3 µM | TGI [40]: 29.9 µM | GI50 [41]: 6.14 µM | TGI [41]: 13.6 µM | GI50 [42]: 10.6 µM | TGI [42]: > 47.3 µM | GI50 [43]: 7.41 µM | TGI [43]: 14.4 µM | GI50 [44]: 8 µM | TGI [44]: 15 µM | GI50 [45]: 7.85 µM | TGI [45]: 15.7 µM | GI50 [46]: 7.8 µM | TGI [46]: 14.6 µM | GI50 [47]: 5.4 µM | TGI [47]: 11.8 µM | GI50 [48]: 15.4 µM | TGI [48]: > 47.3 µM | GI50 [49]: 6.75 µM | TGI [49]: 13 µM | GI50 [50]: 10.6 µM | TGI [50]: 34.9 µM | GI50 [51]: 4.11 µM | TGI [51]: > 47.3 µM | GI50 [52]: 8.77 µM | TGI [52]: 18.9 µM | GI50 [53]: 13.5 µM | TGI [53]: > 47.3 µM | GI50 [54]: 9.96 µM | TGI [54]: 33.7 µM | GI50 [55]: 7.15 µM | TGI [55]: 14.6 µM | GI50 [56]: 9.69 µM | TGI [56]: 34.2 µM | GI50 [57]: 6.42 µM | TGI [57]: 12.8 µM | GI50 [58]: 7.25 µM | TGI [58]: 23.7 µM
